Assay results published in US9605004B2, “Chemical compounds” (SYNGENTA LIMITED, priority 2013, dated 2017).

Experiments:
[1] = test system: a variety of test species; assay: Pre-emergence herbicidal activity (Example 8a, Table 2); format: in vivo; parameters: key: 0 = no damage to plant, 5 = total damage to plant; settings: application pre-emergence, rate 1000 g/ha, evaluated after 13 days
Summary of the method: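 Seeds sown in standard soil in pots, sprayed one day later (pre-emergence) with aqueous solution from acetone/water (50:50) formulation with 0.5% Tween 20. Glasshouse at 24/16 °C day/night, 14 h light, 65% humidity, watered twice daily. Damage scored after 13 days, 0 (none) to 5 (total).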

[2] = test system: a variety of test species; assay: Post-emergence herbicidal activity (Example 8b, Table 3); format: in vivo; settings: application post-emergence, rate 1000 g/ha, evaluated after 13 days, scale 0-5; for Herbicidal damage score, ABUTH: Abutilon theophrasti; for Herbicidal damage score, ALOMY: Alopecurus myosuroides; for Herbicidal damage score, AMARE: Amaranthus retroflexus; for Herbicidal damage score, ECHCG: Echinochloa crus-galli; for Herbicidal damage score, SETFA: Setaria faberi; for Herbicidal damage score, ZEAMX: Zea mays
Summary of the method: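 Damage rating 0 (none) to 5 (total), assessed 13 days after spraying. Plants received the compound in acetone/water 50:50 with 0.5% Tween 20 at 8 days post-sowing, then were kept at 24/16 °C, 14 h photoperiod, 65% RH.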

SMILES | Pre-emergence herbicidal activity, damage score ABUTH [1] | Pre-emergence herbicidal activity, damage score ALOMY [1] | Pre-emergence herbicidal activity, damage score AMARE [1] | Pre-emergence herbicidal activity, damage score ECHCG [1] | Pre-emergence herbicidal activity, damage score SETFA [1] | Pre-emergence herbicidal activity, damage score ZEAMX [1] | Herbicidal damage score, ABUTH [2] | Herbicidal damage score, ALOMY [2] | Herbicidal damage score, AMARE [2] | Herbicidal damage score, ECHCG [2] | Herbicidal damage score, SETFA [2] | Herbicidal damage score, ZEAMX [2]
COC1=C(C)C(O)N(c2nn(C)c(C(C)(C)C)c2C#N)C1=O (stereo not drawn) [Compound H3] | 4 | 4 | 4 | 5 | 4 | 1 | 5 | 5 | 4 | 5 | 5 | 3
COC1=C(C)C(O)N(c2cc(C(F)(F)F)n(C)n2)C1=O (stereo not drawn) [Compound H4] | 5 | 4 | 5 | 5 | 5 | 4 | 5 | 5 | 5 | 5 | 5 | 5
CC1=C(Br)C(=O)N(c2cc(C(C)(C)C)[nH]n2)C1O (stereo not drawn) [Compound I1] | 5 | 4 | 5 | 5 | 4 | 3 | 5 | 4 | 5 | 5 | 5 | 5
CC1=C(Br)C(=O)N(c2cc(C(C)(C)C)n(C)n2)C1O (stereo not drawn) [Compound J1] | 5 | 3 | 5 | 5 | 4 | 2 | 5 | 5 | 5 | 5 | 5 | 4
CC1=C(Br)C(=O)N(c2cc(C(C)(C)C)n(C)n2)C1O (stereo not drawn) [Compound J2] | 5 | 3 | 5 | 5 | 4 | 2 | 5 | 5 | 5 | 5 | 5 | 4
CC(C)=CCc1cc(N2C(=O)C(Br)=C(C)C2O)nn1C (stereo not drawn) [Compound J3] | 0 | 0 | 0 | 0 | 0 | 0 | 4 | 1 | 2 | 2 | 4 | 0
CC1=C(Br)C(=O)N(c2cc(C(F)(F)F)n(C)n2)C1O (stereo not drawn) [Compound J4] | 5 | 4 | 5 | 4 | 5 | 4 | 5 | 5 | 5 | 5 | 5 | 5
CC1=C(Br)C(=O)N(c2nn(C)c(C(C)(C)C)c2C#N)C1O (stereo not drawn) [Compound L1] | 5 | 4 | 5 | 5 | 5 | 3 | 5 | 5 | 5 | 5 | 5 | 3
CCC1=C(Br)C(=O)N(c2nn(C)c(C(C)(C)C)c2C#N)C1O (stereo not drawn) [Compound L2] | 4 | 3 | 3 | 4 | 3 | 0 | 5 | 5 | 5 | 5 | 5 | 1
CCCC1=C(Br)C(=O)N(c2nn(C)c(C(C)(C)C)c2C#N)C1OC(=O)CC (stereo not drawn) [Compound L3] | 4 | 3 | 3 | 4 | 3 | 2 | 5 | 4 | 4 | 5 | 5 | 2
CCCC1=C(Br)C(=O)N(c2nn(C)c(C(C)(C)C)c2C#N)C1O (stereo not drawn) [Compound L4] | 4 | 4 | 3 | 5 | 4 | 2 | 5 | 5 | 5 | 5 | 5 | 2
CC1=C(Br)C(=O)N(c2cc3n(n2)CCC3(C)C)C1O (stereo not drawn) [Compound M1] | 5 | 4 | 5 | 5 | 5 | 4 | 5 | 5 | 5 | 5 | 5 | 4
CC1=C(Br)C(=O)N(c2cc3n(n2)CCCC3(C)C)C1O (stereo not drawn) [Compound M2] | 5 | 4 | 5 | 5 | 4 | 3 | 5 | 5 | 5 | 5 | 5 | 3
CC1=C(Br)C(=O)N(c2cc3n(n2)CCSC3(C)C)C1O (stereo not drawn) [Compound M3] | 4 | 3 | 5 | 3 | 2 | 0 | 5 | 5 | 5 | 5 | 5 | 1
CC1=C(Br)C(=O)N(c2cc3n(n2)CCS(=O)(=O)C3(C)C)C1O (stereo not drawn) [Compound M4] | 5 | 2 | 5 | 2 | 2 | 1 | 5 | 4 | 5 | 5 | 4 | 0
